# Experimental data taken from patent publication US9896662B2, “Process for enhancing stem cell bioactivity using tauroursodeoxycholic acid” (Pusan National University Industry—University Cooperation …, priority 2014, dated 2018).
# Columns and labels:
# [1] = test system: CD34+ cells on bone marrow stromal cells; assay: adhesion and dissociation of CD34+ cells on bone marrow stromal cells (fluorescence microscope count); format: cell-based; settings: TUDCA 50, 100 μM, incubated 1 hour, compared with the control
# Description: When ischemic damage occurs, for vascular repair, a process in which angiogenic stem cells integrated with bone marrow stromal cells are dissociated from bone marrow and transported to ischemic tissue first occurs in the vascular repair mechanism. In order to confirm a change in dissociation of angiogenic stem cells from bone marrow stromal cells by TUDCA, CD34^+ cells stained with CM-DiI (staining red), which were treated with TUDCA (0, 50, 100 μM), were incubated for 1 hour on glass slides in which bone marrow stromal cells were seeded. The number of CD34^+ cells adhered to or dissociated from bone marrow stromal cells was counted by a fluorescence microscope (FIGS. 1a, 1b, and 1c). AMD3100, a CXCR4 antagonist, was used as a positive control.
# [2] = test system: ICAM, Jagged1, N-cadherin, LFA1, and c-kit; assay: mRNA expression of cell adhesion factors in CD34+ cells; format: cell-based; settings: TUDCA 50 μM for 5 hours
# Description: Based thereon, a change in mRNA expression of cell adhesion factors involved in cell adhesion was confirmed. After treating CD34^+ cells with TUDCA (50 μM) for 5 hours, mRNA expression of ICAM, Jagged′, N-cadherin, LFA1, and c-kit, which are involved in cell adhesion, was confirmed.
# [3] = test system: CD34+ hematopoietic stem cells (HSCs); assay: trans-well assay of cell migration capability; format: cell-based; settings: TUDCA 0, 10, 50, 100 μM; concentration-dependent
# Description: (§1) In order to confirm mobilization capability of angiogenic stem cells, which were dissociated from bone marrow stromal cells, to peripheral blood, CD34^+ hematopoietic stem cells (HSCs) were treated with various concentrations of TUDCA (0, 10, 50, 100 μM), to confirm the cell migration capability by trans-well assay. […] Based on the result, TUDCA (10 mg/kg) was orally administered to C57BL/6 mice, and the number of angiogenic stem cells (CD34^+/Sca1^+) in peripheral blood were analyzed by FACS analysis over time (at day 0, 1, 3).
# [4] = test system: angiogenic stem cells (CD34+/Sca1+) in peripheral blood; assay: FACS analysis of angiogenic stem cells in peripheral blood after oral administration; format: in vivo; settings: 10 mg/kg oral, C57BL/6 mice, day 0, 1, 3
# Description: as §1
# [5] = test system: angiogenic stem cells in peripheral blood; assay: Hill's assay of cell populations mobilized to peripheral blood; format: in vivo; settings: oral, mice; concentration and time-dependent
# Description: (§2) When TUDCA was orally administered, a variety of cell populations are mobilized to peripheral blood. After orally administering TUDCA to mice, the cell populations were analyzed by Hill's assay. As a result, it was confirmed that the number of angiogenic stem cells increased in TUDCA concentration and time-dependent manner (FIGS. 4a and 4b). In order to confirm side effects caused by mobilization of cell populations associated with immunity and inflammation, other than angiogenic stem cells, upon treatment with TUDCA, the change in the number of leukocytes, lymphocytes, monocytes, and granulocytes in peripheral blood was confirmed by complete blood cell (CBC) count. […] Also, it was confirmed that […] are EPCs by confirming the uptake of acetyl-LDL and FITC-isolectin B4 (FIG. 4d).
# [6] = test system: leukocytes, lymphocytes, monocytes, and granulocytes in peripheral blood; assay: complete blood cell (CBC) count; format: in vivo; settings: oral, mice, 10 mg/kg for 3 days
# Description: as §2
# CD34+ HSCs = assay: EPC colony forming capability of CD34+ HSCs (differentiation into the EPC lineage); format: cell-based
# Text: (§3) Meanwhile, in order to clarify the impact of TUDCA on CD34^+ HSC differentiation into the EPC lineage, the EPC colony forming capability of CD34^+ HSCs was examined. As a result, it was confirmed that the EPC colony forming capability was enhanced by TUDCA (FIG. 4e). Further, as Akt activation via PI3-kinase increases differentiation of CD34^+ HSCs into the EPC lineage, it was examined whether TUDCA activates Akt in CD34^+ HSC. As a result, it was confirmed that TUDCA increased Akt phosphorylation, and the exposure to LY294002, a PI3K inhibitor, inhibited TUDCA-mediated CD34^+ HSC differentiation into the EPC lineage (FIG. 4f).
# Akt = Akt activation in CD34+ HSC; format: cell-based
# Text: as §3
# [7] = test system: Human arterial endothelial cells (HAECs) mixed with angiogenic stem cells; assay: tube formation assay of HAECs mixed with angiogenic stem cells; format: cell-based; settings: TUDCA 50 μM
# Text: It is the most significant process in the vascular recovery mechanism that angiogenic stem cells mobilized from bone marrow are integrated with vascular endothelial cells preexisting in damaged tissue, to generate new blood vessels through interaction. Human arterial endothelial cells (HAECs) were mixed with angiogenic stem cells, and then the integration capability between the two cells was examined by tube formation assay.
# [8] = test system: CD44, N-cadherin, c-kit, and LFA1 in HAECs; assay: mRNA expression levels of cell adhesion molecules in HAECs; format: cell-based, Human
# Text: (§4) Further, as the first step of integration with vascular endothelial cells is cell adhesion, mRNA expression levels of cell adhesion molecules in HAECs and EPCs were examined.
# [9] = test system: CD44, Jagged-1, N-cadherin, VLA5, CXCR4, c-kit, and Notch in EPCs; assay: mRNA expression levels of cell adhesion molecules in EPCs; format: cell-based
# Text: as §4
# angiogenic stem cells [10] = assay: proliferation capability of angiogenic stem cells; format: cell-based; settings: 50 μM of TUDCA (tested 0, 10, 50, 100 μM)
# Description: (§5) In order to confirm that the treatment with TUDCA involves enhancement of biological activity functions of angiogenic stem cells in addition to enhancement of mobilization and migration capabilities of angiogenic stem cells from bone marrow to peripheral blood and ischemic tissue, angiogenic stem cells were treated with different concentrations (0, 10, 50, 100 μM) of TUDCA. Then, various biological activity functions were evaluated. […] In order to confirm vascular differentiation potential, tube-forming capability was examined.
# angiogenic stem cells [11] = assay: infiltration capability of angiogenic stem cells; format: cell-based; settings: 50 μM of TUDCA
# Description: as §5
# angiogenic stem cells [12] = assay: tube-forming capability of angiogenic stem cells; format: cell-based; settings: TUDCA 0, 10, 50, 100 μM; concentration-dependent
# Description: as §5
# hindlimb ischemic tissue [13] = assay: mouse hindlimb ischemia model, oral TUDCA; format: in vivo; settings: 20 mg/kg oral every day
# Description: TUDCA was applied to mouse disease models based on the above experiments, to verify the effects. Mouse hindlimb ischemia model, which is one of the disease animals, for verifying vascular repair capability was prepared. Thereafter, 20 mg/kg of TUDCA was orally administered to mice every day, to confirm vascular repair capability over time. […] In order to confirm whether angiogenic stem cells were mobilized by TUDCA to hindlimb ischemic tissue, hindlimb ischemic tissue was removed 3 days after the preparation of the hindlimb ischemia models, and flow cytometry was performed using an angiogenic stem cell marker. As a result, it was confirmed that the number of angiogenic stem cells in ischemic tissue increased in the group to which TUDCA was orally administered (FIG. 7c). In order to confirm angiogenesis by TUDCA, hindlimb ischemic tissue was removed 14 days after the preparation of the hindlimb ischemia models and subjected to immunofluorescent staining, to verify capillary density and arteriole density.
# hindlimb ischemic tissue [14] = assay: hindlimb ischemia model in GFP bone marrow-transplanted mice, oral TUDCA; format: in vivo, GFP-BMT mice (C57BL/6); settings: 20 mg/kg oral, GFP-BMT mice
# Text: It is known that angiogenic stem cells are mainly present in bone marrow, but they are present in different tissues than bone marrow. In order to confirm whether angiogenic stem cells are derived from bone marrow by TUDCA and involved in vascular repair mechanism, bone marrow was isolated from green fluorescent protein (GFP) mice and transplanted into C57BL/6. Once bone marrow transplantation (BMT) mice are thus prepared, chimeric mice which show green fluorescence only for bone marrow cells are obtained. After preparing hindlimb ischemia animal models using GFP-BMT mice, TUDCA (20 mg/kg) was orally administered to verify vascular repair capability. […] In order to confirm angiogenesis by TUDCA, hindlimb ischemic tissue was removed 14 days after the preparation of the hindlimb ischemia models and subjected to immunofluorescent staining, to verify capillary and arteriole density. […] In order to confirm whether angiogenic stem cells were mobilized by TUDCA from bone marrow to hindlimb ischemic tissue, mobilization capability of angiogenic stem cells was examined by immunofluorescent staining using a bone marrow marker GFP, an angiogenic stem cell marker c-kit, a vascular marker ILB4, into which hindlimb ischemic tissue removed from the hindlimb ischemia models was transplanted 3 days after the preparation. […] In order to examine whether angiogenic stem cells mobilized by TUDCA from bone marrow differentiate into new blood vessels in hindlimb ischemic tissue, vascular differentiation potential of angiogenic stem cells was examined, through immunofluorescent staining and morphological analysis, using a bone marrow marker GFP, a marker of vascular differentiation VEGFR, a vascular marker ILB4, into which hindlimb ischemic tissue removed from the hindlimb ischemia models was transplanted 14 days after the preparation.
# [15] = test system: angiogenic stem cells and cell populations in peripheral blood; assay: oral administration to healthy subjects: cell populations mobilized to peripheral blood; format: in vivo, human; settings: 5 mg/kg oral for 3 days
# Description: Upon oral administration of TUDCA to healthy subjects, angiogenic stem cells and various cell populations, which were mobilized to peripheral blood, were confirmed and differentiation potential into functional endothelial progenitor cells was verified using peripheral blood. 5 mg/kg of TUDCA was orally administered to healthy subjects for 3 days, and the expression of angiogenic stem cell markers was examined.
# [16] = test system: senescent angiogenic stem cells (passages 13 to 16); assay: β-galactosidase staining of senescent angiogenic stem cells; format: cell-based
# Description: In order to use stem cells as a stem cell therapy product, it is important to obtain a sufficient number of stem cells in a healthy state. However, upon in vitro expansion of stem cells for obtaining a sufficient number of stem cells, repeated passages cause senescence of stem cells. In order to resolve this problem, angiogenic stem cells subjected to repeated passages (passages 13 to 16) were treated with TUDCA, to verify senescence inhibition. Senescent angiogenic stem cells were treated with TUDCA and subjected to β-galactosidase staining capable of confirming senescence, to confirm senescence recovery.
# [17] = test system: senescent angiogenic stem cells; assay: nitric oxide and reactive oxygen species in senescent angiogenic stem cells; format: cell-based; settings: senescent angiogenic stem cells treated with TUDCA
# [18] = day 14, immunofluorescent staining
structure (smiles),measurement,setting,value
"C[C@H](CCC(=O)NCCS(=O)(=O)O)[C@H]1CC[C@H]2[C@@H]3[C@@H](O)C[C@@H]4C[C@H](O)CC[C@]4(C)[C@H]3CC[C@]12C [TUDCA, tauroursodeoxycholic acid]",number of CD34+ cells adhered to the stromal cells,[1],significantly decreased
same,number of CD34+ cells dissociated from the stromal cells,[1],significantly increased
same,"mRNA expression of cell adhesion factors (ICAM, Jagged1, N-cadherin, LFA1, c-kit)",[2],significantly decreased
same,migration capability of CD34+ cells,[3],significantly increased
same,number of angiogenic stem cells (CD34+/Sca1+) in peripheral blood,[4],significantly increased
same,number of angiogenic stem cells (Hill's assay),[5],increased
same,number of granulocytes involved in inflammatory response,[6],significantly decreased
same,EPC colony forming capability of CD34+ HSCs,CD34+ HSCs,enhanced
same,Akt phosphorylation,Akt,increased
same,tube formation capability,[7],significantly increased
same,"mRNA expression levels of CD44, N-cadherin, c-kit, and LFA1",[8],significantly increased
same,"mRNA expression levels of CD44, Jagged-1, N-cadherin, VLA5, CXCR4, c-kit, and Notch",[9],significantly increased
same,proliferation capability of angiogenic stem cells,angiogenic stem cells [10],most significantly increased
same,infiltration capability of angiogenic stem cells,angiogenic stem cells [11],most significantly increased
same,tube-forming capability of angiogenic stem cells,angiogenic stem cells [12],significantly increased
same,blood flow improvement (LDPI assay),hindlimb ischemic tissue [13],significantly increased
same,number of angiogenic stem cells in ischemic tissue (flow cytometry),hindlimb ischemic tissue [13]; day 3,increased
same,number of arterioles,hindlimb ischemic tissue [13]; [18],significantly increased
same,number of capillaries,hindlimb ischemic tissue [13]; [18],significantly increased
same,blood flow (LDPI assay),hindlimb ischemic tissue [14],significantly improved
same,number of angiogenic stem cells derived from bone marrow into ischemic tissue,"hindlimb ischemic tissue [14]; day 3, GFP/c-kit/ILB4 staining",significantly increased
same,number of arterioles,hindlimb ischemic tissue [14]; day 14,significantly increased
same,number of capillaries,hindlimb ischemic tissue [14]; day 14,significantly increased
same,number of bone marrow-derived angiogenic stem cells differentiated into vascular endothelial cells,"hindlimb ischemic tissue [14]; day 14, GFP/VEGFR/ILB4 staining",significantly increased
same,colony forming capability (EPC-CFA),[15],significantly increased
same,distribution of granulocytes involved in inflammatory response,[15],significantly decreased
same,"expression of angiogenic stem cell markers CD34, CD31, and c-kit",[15],significantly increased
same,number of β-galactosidase positive cells,[16],significantly increased
same,expression amount of nitric oxide,[17],significantly increased
same,expression amount of reactive oxygen species,[17],significantly decreased
